Test results as given in publication PMC8691714 (Cancer Research Communications, 2021).
Marks after values point to notes of the source that are not given here.

How the values were obtained:
[1] = parameters: method as in earlier work; settings: PBPK model parameter, ref [17, 18] and Drugbank, cited from earlier work
[2] = population PK model estimate, mice
[3] = parameters: method as in earlier work; settings: PBPK model parameter, ref [17, 18] and Drugbank, cited from earlier work; remark: listed apart in the source
[4] = In vivo pharmacokinetic study in mice, oral ibrutinib (plasma, LC-MS/MS)
Procedure: (§1) Experiments were performed with male and female mice from inbred wild-type strains (FVB, C57BL/6, DBA) or with age- and sex-matched genetically engineered mice with a deficiency of the Cyp3a locus [(8 genes; FVB.129P2-Cyp3a13^tm1Ahs Del (5Cyp3a57-Cyp3a59)1Ahs); ref. [16]; CYP3A^−/−], a deficiency of the intestinal transporter OATP2B1 (ref. [17]; OATP2B1 ^−/−), or the hepatic transporter OATP1B2 (ref. [18]; OATP1B2 ^−/−). […] The studies were approved by the University Laboratory Animal Resources Animal Care and Use Committee at The Ohio State University (Columbus, OH). […] For in vivo studies, drugs were prepared in standard vehicles ([19, 20]). Details regarding the preparation of drugs are provided in the Supplementary Methods.
(§2) Pharmacokinetic studies were performed as described previously ([21]). Further details are provided in the Supplementary Methods.
(§3) The lower limit of quantification was 5 ng/mL, using 5-μL sample volumes. Details regarding the analytic method are provided in the Supplementary Methods.
(§4) Ketoconazole was prepared for oral administration as a 10-mg/mL suspension in PEG400, and cobicistat as a 6-mg/mL suspension in corn oil.
(§5) Pharmacokinetic studies were performed as previously described.
The analytical equipment consisted of a Vanquish UHPLC system, a TSQ Quantum Ultra triple quadrupole mass spectrometer from Thermo Fisher Scientific, and Thermo Trace Finder General Quan system software (version 3.3). An Accucore Vanquish C18 column (100 × 2.1 mm, dp = 1.5 μm; Thermo Fisher Scientific) was protected by a corresponding XBridgeBEH C18, 5-μm guard column. The injection volume of sample was 5.0 μL. The temperature of the autosampler rack was 4 °C, and the temperature of the column was 40 °C. Mobile phase A consisted of water with 0.1% (v/v) formic acid and mobile phase B consisted of acetonitrile: methanol (1:3) with 0.1% (v/v) formic acid. The total run time was 5 min. The mobile phase was delivered at a flow rate of 0.4 mL/min, and the optimized gradient contained time-varying amounts of mobile phase B, as follows: 0-0.5 min, 10% B; 0.5-1.5 min, 95% B; 1.5-2.9 min, 95% B; 2.9-3.0 min, 10% B; and 3.0-5.0 min, 10% B. The mass spectrometric assay settings included a positive voltage applied to the ESI capillary of 3500 V, a capillary temperature of 342 °C, and a vaporizer temperature of 358 °C. Argon was used a collision gas at a pressure of 1.5 mTorr. […] For sample extraction by protein precipitation, 5 µL of plasma, 5 µL of microsomal suspension, or 10 µL of homogenized tissue were added to a tube containing 60 µL of internal standard solution and 20 µL of methanol. Samples were then vortex-mixed, centrifuged at 13,000 rpm for 9.5 min, and supernatants collected and stored frozen until analysis. […] The lower limit of quantification was 5 ng/mL, using 5-µL sample volumes.

[5] = In vivo pharmacokinetic study in mice, intravenous ibrutinib (plasma); settings: female wild-type FVB mice, ibrutinib 1 mg/kg IV; for PCI-45227 AUC(0-last) / PCI-45227 Cmax: mean (SD)
Procedure: as §1, §2, §3, §4, §5

[6] = female CYP3A-/- mice, ibrutinib 10 mg/kg oral, no cotreatment, mean (SE)
[7] = female OATP1B2(-/-) mice, ibrutinib 10 mg/kg PO, no co-treatment, mean (SD)
[8] = female OATP2B1(-/-) mice, ibrutinib 10 mg/kg PO, no co-treatment, mean (SD)
[9] = female wild-type C57BL/6 mice, ibrutinib 10 mg/kg PO, no co-treatment, mean (SD)
[10] = female wild-type DBA mice, ibrutinib 10 mg/kg PO, no co-treatment, mean (SD)
[11] = female wild-type FVB mice, ibrutinib 4 mg/kg oral, cotreatment cobicistat 30 mg/kg, mean (SE)
[12] = female wild-type FVB mice, ibrutinib 10 mg/kg oral single dose, cotreatment cobicistat 30 mg/kg, mean (SE)
[13] = female wild-type FVB mice, ibrutinib 10 mg/kg oral single dose, cotreatment corn oil, mean (SE)
[14] = female wild-type FVB mice, ibrutinib 10 mg/kg oral, cotreatment PEG400, mean (SE)
[15] = female wild-type FVB mice, ibrutinib 10 mg/kg oral, cotreatment cobicistat 30 mg/kg, steady-state, mean (SE)
[16] = female wild-type FVB mice, ibrutinib 10 mg/kg oral, cotreatment corn oil, steady-state, mean (SE)
[17] = female wild-type FVB mice, ibrutinib 10 mg/kg oral, cotreatment ketoconazole 50 mg/kg, mean (SE)
[18] = female wild-type FVB mice, ibrutinib 10 mg/kg oral, no cotreatment, mean (SE)
[19] = female wild-type FVB mice, ibrutinib 30 mg/kg oral, no cotreatment, mean (SE)
[20] = male OATP2B1(-/-) mice, ibrutinib 10 mg/kg PO, no co-treatment, mean (SD)
[21] = male wild-type C57BL/6 mice, ibrutinib 10 mg/kg PO, no co-treatment, mean (SD)
[22] = male wild-type FVB mice, ibrutinib 10 mg/kg PO, co-treatment No Vehicle (cobicistat experiment), mean (SD)
[23] = male wild-type FVB mice, ibrutinib 10 mg/kg PO, co-treatment None (ketoconazole experiment), mean (SD)
[24] = male wild-type FVB mice, ibrutinib 10 mg/kg PO, co-treatment PEG400, mean (SD)
[25] = male wild-type FVB mice, ibrutinib 10 mg/kg PO, co-treatment cobicistat, mean (SD)
[26] = male wild-type FVB mice, ibrutinib 10 mg/kg PO, co-treatment corn oil, mean (SD)
[27] = male wild-type FVB mice, ibrutinib 10 mg/kg PO, co-treatment ketoconazole, mean (SD)

Nc1ncnc2c1c(-c1ccc(Oc3ccccc3)cc1)nn2[C@@H]1CCCN(C(=O)C(O)CO)C1 (some centres unmarked) [PCI-45227]
B/P ratio ([1]; blood to plasma ratio): 0.790
fu, plasma ([1]; unbound drug in the plasma): 0.056
IIV CLm ([2]; inter-individual variability): 0.0242
IIV Vm ([2]; inter-individual variability): 1.38
Fmet (metabolism of PCI-45227) [2]: 0.0216
Vm (volume of distribution for the central compartment of PCI-45227) [2]: 0.0578
RV PCI ([2]; residual variability): 0.730
pKa ([3]; acid dissociation constant): 4.06
Log Po:w ([3]; octanol/water partition coefficient): 2.21
levels of PCI-45227 ([4]; CYP3A-/- mice, oral ibrutinib): almost undetectable levels
PCI-45227: Ibrutinib AUC ratio ([4]; female CYP3A-/- mice, ibrutinib 10 mg/kg oral, no cotreatment): 0.003
PCI-45227 AUC(0-last) [4, 6]: 6.3 (1.7)^c ng/h/mL
PCI-45227 Cmax [4, 6]: 8.2 (2.1)^c ng/mL
PCI-45227: Parent AUC Ratio ([4]; female OATP1B2(-/-) mice, ibrutinib 10 mg/kg PO, no co-treatment): 0.14
PCI-45227 AUC(0-last) [4, 7]: 304 (12) ng*hr/mL
PCI-45227 Cmax [4, 7]: 157 (9) ng/mL
PCI-45227: Parent AUC Ratio ([4]; female OATP2B1(-/-) mice, ibrutinib 10 mg/kg PO, no co-treatment): 1.1
PCI-45227 AUC(0-last) [4, 8]: 1952 (168)** ng*hr/mL
PCI-45227 Cmax [4, 8]: 745 (115)** ng/mL
PCI-45227: Parent AUC Ratio ([4]; female wild-type C57BL/6 mice, ibrutinib 10 mg/kg PO, no co-treatment): 2.1
PCI-45227 AUC(0-last) [4, 9]: 3007 (236) ng*hr/mL
PCI-45227 Cmax [4, 9]: 1373 (70) ng/mL
PCI-45227: Parent AUC Ratio ([4]; female wild-type DBA mice, ibrutinib 10 mg/kg PO, no co-treatment): 0.12
PCI-45227 AUC(0-last) [4, 10]: 343 (52) ng*hr/mL
PCI-45227 Cmax [4, 10]: 234 (47) ng/mL
PCI-45227: Ibrutinib AUC ratio ([4]; female wild-type FVB mice, ibrutinib 4 mg/kg oral, cotreatment cobicistat 30 mg/kg): 0.05
PCI-45227 AUC(0-last) [4, 11]: 56 (22)^c ng/h/mL
PCI-45227 Cmax [4, 11]: 30.7 (12.1)^c ng/mL
PCI-45227: Ibrutinib AUC ratio ([4]; female wild-type FVB mice, ibrutinib 10 mg/kg oral single dose, cotreatment cobicistat 30 mg/kg): 0.05
PCI-45227 AUC(0-last) [4, 12]: 139 (56)^c ng/h/mL
PCI-45227 Cmax [4, 12]: 45 (14)^c ng/mL
PCI-45227: Ibrutinib AUC ratio ([4]; female wild-type FVB mice, ibrutinib 10 mg/kg oral single dose, cotreatment corn oil): 2.0
PCI-45227 AUC(0-last) [4, 13]: 563 (91)^d ng/h/mL
PCI-45227 Cmax [4, 13]: 219 (61)^b ng/mL
PCI-45227: Ibrutinib AUC ratio ([4]; female wild-type FVB mice, ibrutinib 10 mg/kg oral, cotreatment PEG400): 0.87
PCI-45227 AUC(0-last) [4, 14]: 668 (155) ng/h/mL
PCI-45227 Cmax [4, 14]: 246 (54) ng/mL
PCI-45227: Ibrutinib AUC ratio ([4]; female wild-type FVB mice, ibrutinib 10 mg/kg oral, cotreatment cobicistat 30 mg/kg, steady-state): 0.25
PCI-45227 AUC(0-last) [4, 15]: 560 (73)^b ng/h/mL
PCI-45227 Cmax [4, 15]: 211 (65) ng/mL
PCI-45227: Ibrutinib AUC ratio ([4]; female wild-type FVB mice, ibrutinib 10 mg/kg oral, cotreatment corn oil, steady-state): 2.0
PCI-45227 AUC(0-last) [4, 16]: 917 (128) ng/h/mL
PCI-45227 Cmax [4, 16]: 405 (74) ng/mL
PCI-45227: Ibrutinib AUC ratio ([4]; female wild-type FVB mice, ibrutinib 10 mg/kg oral, cotreatment ketoconazole 50 mg/kg): 0.08
PCI-45227 AUC(0-last) [4, 17]: 682 (250) ng/h/mL
PCI-45227 Cmax [4, 17]: 288 (89) ng/mL
PCI-45227: Ibrutinib AUC ratio ([4]; female wild-type FVB mice, ibrutinib 10 mg/kg oral, no cotreatment): 2.5
PCI-45227 AUC(0-last) [4, 18]: 765 (79) ng/h/mL
PCI-45227 Cmax [4, 18]: 447 (45) ng/mL
PCI-45227: Ibrutinib AUC ratio ([4]; female wild-type FVB mice, ibrutinib 30 mg/kg oral, no cotreatment): 1.9
PCI-45227 AUC(0-last) [4, 19]: 3,281 (154) ng/h/mL
PCI-45227 Cmax [4, 19]: 837 (77) ng/mL
PCI-45227: Parent AUC Ratio ([4]; male OATP2B1(-/-) mice, ibrutinib 10 mg/kg PO, no co-treatment): 1.3
PCI-45227 AUC(0-last) [4, 20]: 2236 (160)*** ng*hr/mL
PCI-45227 Cmax [4, 20]: 850 (96)* ng/mL
PCI-45227: Parent AUC Ratio ([4]; male wild-type C57BL/6 mice, ibrutinib 10 mg/kg PO, no co-treatment): 2.4
PCI-45227 AUC(0-last) [4, 21]: 3338 (239) ng*hr/mL
PCI-45227 Cmax [4, 21]: 1252 (97) ng/mL
PCI-45227: Parent AUC Ratio ([4]; male wild-type FVB mice, ibrutinib 10 mg/kg PO, co-treatment No Vehicle (cobicistat experiment)): 2.8
PCI-45227 AUC(0-last) [4, 22]: 1463 (83) ng*hr/mL
PCI-45227 Cmax [4, 22]: 578 (100) ng/mL
PCI-45227: Parent AUC Ratio ([4]; male wild-type FVB mice, ibrutinib 10 mg/kg PO, co-treatment None (ketoconazole experiment)): 2.5
PCI-45227 AUC(0-last) [4, 23]: 1080 (153) ng*hr/mL
PCI-45227 Cmax [4, 23]: 333 (112) ng/mL
PCI-45227: Parent AUC Ratio ([4]; male wild-type FVB mice, ibrutinib 10 mg/kg PO, co-treatment PEG400): 1.5
PCI-45227 AUC(0-last) [4, 24]: 929 (164) ng*hr/mL
PCI-45227 Cmax [4, 24]: 293 (69) ng/mL
PCI-45227: Parent AUC Ratio ([4]; male wild-type FVB mice, ibrutinib 10 mg/kg PO, co-treatment cobicistat): 0.096
PCI-45227 AUC(0-last) [4, 25]: 417 (60)*** ng*hr/mL
PCI-45227 Cmax [4, 25]: 124 (34)* ng/mL
PCI-45227: Parent AUC Ratio ([4]; male wild-type FVB mice, ibrutinib 10 mg/kg PO, co-treatment corn oil): 1.7
PCI-45227 AUC(0-last) [4, 26]: 1124 (152)^a ng*hr/mL
PCI-45227 Cmax [4, 26]: 308 (70) ng/mL
PCI-45227: Parent AUC Ratio ([4]; male wild-type FVB mice, ibrutinib 10 mg/kg PO, co-treatment ketoconazole): 0.14
PCI-45227 AUC(0-last) [4, 27]: 911 (94) ng*hr/mL
PCI-45227 Cmax [4, 27]: 236 (37) ng/mL
levels of PCI-45227 ([4]; mice lacking OATP2B1 vs wild-type, ibrutinib 10 mg/kg orally, P < 0.05): decreased
levels of PCI-45227 and PCI-45227-to-ibrutinib ratio ([4]; wild-type mice, cobicistat pretreatment): significantly decreased
PCI-45227: Parent AUC Ratio ([5]; co-treatment cobicistat): 0.04
PCI-45227 AUC(0-last) ([5]; co-treatment cobicistat): 38 (27) ng*hr/mL
PCI-45227 Cmax ([5]; co-treatment cobicistat): 25 (11) ng/mL
PCI-45227 AUC(0-last) ([5]; co-treatment corn oil): 311 (15) ng*hr/mL
PCI-45227 Cmax ([5]; co-treatment corn oil): 197 (5) ng/mL
